# Patent publication US20230085307A1, “PYRIDAZINONE COMPOUND AND HERBICIDE” (NISSAN CHEMICAL CORPORATION, priority 2019, published 2023)
# Columns and labels:
# redroot pigweed [1] = experiment: Test Example 4: herbicidal effect by soil treatment (Table 19, symbol N); format: in vivo, redroot pigweed (Amaranthus retroflexus); details: amount of applied herbicide 320 g/ha
# Method in brief: (§1)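 Seeds were sown in sterilized diluvial soil and covered with about 1.5 cm of soil. An emulsion formulation diluted with water to a predetermined herbicide amount was sprayed evenly onto the soil surface. Plants grew in a greenhouse at 25° C. to 30° C., and the effect was scored three weeks after application using criteria from an earlier test.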
# persian speedwell [2] = experiment: Test Example 5: herbicidal effect by foliage application, plastic box (Table 20, symbol R); format: in vivo, Persian speedwell (Veronica persica); details: foliage application, evaluated three weeks after application
# Method in brief: (§2)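 Plants sown in sterilized diluvial soil and grown 14 days in a greenhouse at 25° C to 30° C, then sprayed on the foliage with the compound's emulsion diluted in water to a predetermined herbicide amount. Injury to weeds and crops scored three weeks after application on a visual rating scale.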
# windgrass [3] = experiment: Test Example 5: herbicidal effect by foliage application, plastic box (Table 20, symbol L); format: in vivo, windgrass (Apera spica-venti); details: foliage application, evaluated three weeks after application
# Method in brief: as §2
# velvetleaf [4] = experiment: Test Example 5: herbicidal effect by foliage application, plastic box (Table 20, symbol M); format: in vivo, velvetleaf (Abutilon theophrasti); details: foliage application, evaluated three weeks after application
# Method in brief: as §2
# southern crabgrass [5] = experiment: Test Example 5: herbicidal effect by foliage application, plastic box (Table 20, symbol F); format: in vivo, southern crabgrass (Digitaria ciliaris); details: foliage application, evaluated three weeks after application
# Method in brief: as §2
# rice flat sedge = experiment: Test Example 3: herbicidal effect by foliage application, Wagner pot (Table 18, symbol E); format: in vivo, rice flat sedge (Cyperus iria); details: amount of applied herbicide 320 g/ha
# Method in brief: (§3)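 Plants were sown in alluvial soil held under 0.1–0.5 cm standing water and grown 14 days in a greenhouse at 25–30 °C. An emulsifiable formulation, water-diluted to the set dose, was then sprayed onto the foliage, and effects were scored three weeks later using previously defined criteria.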
# Italian ryegrass [6] = experiment: Test Example 5: herbicidal effect by foliage application, plastic box (Table 20, symbol K); format: in vivo, Italian ryegrass (Lolium multiflorum); details: foliage application, evaluated three weeks after application
# Method in brief: as §2
# southern crabgrass [7] = experiment: Test Example 4: herbicidal effect by soil treatment (Table 19, symbol F); format: in vivo, southern crabgrass (Digitaria ciliaris); details: amount of applied herbicide 320 g/ha
# Method in brief: as §1
# lambsquarters [8] = experiment: Test Example 5: herbicidal effect by foliage application, plastic box (Table 20, symbol O); format: in vivo, lambsquarters (Chenopodium album); details: foliage application, evaluated three weeks after application
# Method in brief: as §2
# barnyard grass [9] = experiment: Test Example 5: herbicidal effect by foliage application, plastic box (Table 20, symbol H); format: in vivo, barnyard grass (Echinochloa crus-galli); details: foliage application, evaluated three weeks after application
# Method in brief: as §2
# green foxtail [10] = experiment: Test Example 4: herbicidal effect by soil treatment (Table 19, symbol G); format: in vivo, green foxtail (Setaria viridis); details: amount of applied herbicide 320 g/ha
# Method in brief: as §1
# barnyard grass [11] = experiment: Test Example 3: herbicidal effect by foliage application, Wagner pot (Table 18, symbol H); format: in vivo, barnyard grass (Echinochloa crus-galli); details: amount of applied herbicide 320 g/ha
# Method in brief: as §3
# velvetleaf [12] = experiment: Test Example 4: herbicidal effect by soil treatment (Table 19, symbol M); format: in vivo, velvetleaf (Abutilon theophrasti); details: amount of applied herbicide 320 g/ha
# Method in brief: as §1
# Chinese sprangletop = experiment: Test Example 3: herbicidal effect by foliage application, Wagner pot (Table 18, symbol D); format: in vivo, chinese sprangletop (Leptochloa chinensis); details: amount of applied herbicide 320 g/ha
# Method in brief: as §3
# blackgrass [13] = experiment: Test Example 4: herbicidal effect by soil treatment (Table 19, symbol J); format: in vivo, blackgrass (Alopecurus myosuroides); details: amount of applied herbicide 320 g/ha
# Method in brief: as §1
# green foxtail [14] = experiment: Test Example 5: herbicidal effect by foliage application, plastic box (Table 20, symbol G); format: in vivo, green foxtail (Setaria viridis); details: foliage application, evaluated three weeks after application
# Method in brief: as §2
# blackgrass [15] = experiment: Test Example 5: herbicidal effect by foliage application, plastic box (Table 20, symbol J); format: in vivo, blackgrass (Alopecurus myosuroides); details: foliage application, evaluated three weeks after application
# Method in brief: as §2
# redroot pigweed [16] = experiment: Test Example 5: herbicidal effect by foliage application, plastic box (Table 20, symbol N); format: in vivo, redroot pigweed (Amaranthus retroflexus); details: foliage application, evaluated three weeks after application
# Method in brief: as §2
# lambsquarters [17] = experiment: Test Example 4: herbicidal effect by soil treatment (Table 19, symbol O); format: in vivo, lambsquarters (Chenopodium album); details: amount of applied herbicide 320 g/ha
# Method in brief: as §1
# Italian ryegrass [18] = experiment: Test Example 4: herbicidal effect by soil treatment (Table 19, symbol K); format: in vivo, Italian ryegrass (Lolium multiflorum); details: amount of applied herbicide 320 g/ha
# Method in brief: as §1
# wild oat [19] = experiment: Test Example 4: herbicidal effect by soil treatment (Table 19, symbol I); format: in vivo, wild oat (Avena fatua); details: amount of applied herbicide 320 g/ha
# Method in brief: as §1
# chickweed [20] = experiment: Test Example 4: herbicidal effect by soil treatment (Table 19, symbol P); format: in vivo, common chickweed (Stellaria media); details: amount of applied herbicide 320 g/ha
# Method in brief: as §1
# persian speedwell [21] = experiment: Test Example 4: herbicidal effect by soil treatment (Table 19, symbol R); format: in vivo, Persian speedwell (Veronica persica); details: amount of applied herbicide 320 g/ha
# Method in brief: as §1
# wild oat [22] = experiment: Test Example 5: herbicidal effect by foliage application, plastic box (Table 20, symbol I); format: in vivo, wild oat (Avena fatua); details: foliage application, evaluated three weeks after application
# Method in brief: as §2
# barnyard grass [23] = experiment: Test Example 4: herbicidal effect by soil treatment (Table 19, symbol H); format: in vivo, barnyard grass (Echinochloa crus-galli); details: amount of applied herbicide 320 g/ha
# Method in brief: as §1
# windgrass [24] = experiment: Test Example 4: herbicidal effect by soil treatment (Table 19, symbol L); format: in vivo, windgrass (Apera spica-venti); details: amount of applied herbicide 320 g/ha
# Method in brief: as §1
# chickweed [25] = experiment: Test Example 5: herbicidal effect by foliage application, plastic box (Table 20, symbol P); format: in vivo, common chickweed (Stellaria media); details: foliage application, evaluated three weeks after application
# Method in brief: as §2
smiles,measurement,setting,value
CCCC(=O)Oc1c(C)nn(C)c(=O)c1-c1c(-c2cccc(OCC)c2)sc2ccc(F)cc12 [2-212],"N: redroot pigweed, herbicidal effect rating",redroot pigweed [1],3 (Herbicidal rate of 40% or more and less than 70%)
same,herbicidal effect on R: persian speedwell (criteria 0-5),persian speedwell [2]; 320 g/ha,5 (Herbicidal rate of 90% or more (almost completely withered))
same,herbicidal effect on L: windgrass (criteria 0-5),windgrass [3]; 320 g/ha,3 (Herbicidal rate of 40% or more and less than 70%)
same,herbicidal effect on M: velvetleaf (criteria 0-5),velvetleaf [4]; 320 g/ha,3 (Herbicidal rate of 40% or more and less than 70%)
same,herbicidal effect on F: southern crabgrass (criteria 0-5),southern crabgrass [5]; 320 g/ha,5 (Herbicidal rate of 90% or more (almost completely withered))
same,herbicidal effect on E: rice flat sedge,rice flat sedge,4 (Herbicidal rate of 70% or more and less than 90%)
same,herbicidal effect on K: Italian ryegrass (criteria 0-5),Italian ryegrass [6]; 320 g/ha,4 (Herbicidal rate of 70% or more and less than 90%)
same,"F: southern crabgrass, herbicidal effect rating",southern crabgrass [7],3 (Herbicidal rate of 40% or more and less than 70%)
same,herbicidal effect on O: lambsquarters (criteria 0-5),lambsquarters [8]; 320 g/ha,3 (Herbicidal rate of 40% or more and less than 70%)
same,herbicidal effect on H: barnyard grass (criteria 0-5),barnyard grass [9]; 320 g/ha,4 (Herbicidal rate of 70% or more and less than 90%)
same,"G: green foxtail, herbicidal effect rating",green foxtail [10],4 (Herbicidal rate of 70% or more and less than 90%)
same,herbicidal effect on H: barnyard grass,barnyard grass [11],5 (Herbicidal rate of 90% or more (almost completely withered))
same,"M: velvetleaf, herbicidal effect rating",velvetleaf [12],0 (Herbicidal rate of 5% or less (almost no effect))
same,herbicidal effect on D: Chinese sprangletop,Chinese sprangletop,3 (Herbicidal rate of 40% or more and less than 70%)
same,"J: blackgrass, herbicidal effect rating",blackgrass [13],0 (Herbicidal rate of 5% or less (almost no effect))
same,herbicidal effect on G: green foxtail (criteria 0-5),green foxtail [14]; 320 g/ha,5 (Herbicidal rate of 90% or more (almost completely withered))
same,herbicidal effect on J: blackgrass (criteria 0-5),blackgrass [15]; 320 g/ha,0 (Herbicidal rate of 5% or less (almost no effect))
same,herbicidal effect on N: redroot pigweed (criteria 0-5),redroot pigweed [16]; 320 g/ha,5 (Herbicidal rate of 90% or more (almost completely withered))
same,"O: lambsquarters, herbicidal effect rating",lambsquarters [17],1 (Herbicidal rate of 5% or more and less than 20%)
same,"K: Italian ryegrass, herbicidal effect rating",Italian ryegrass [18],3 (Herbicidal rate of 40% or more and less than 70%)
same,"I: wild oat, herbicidal effect rating",wild oat [19],0 (Herbicidal rate of 5% or less (almost no effect))
same,"P: chickweed, herbicidal effect rating",chickweed [20],1 (Herbicidal rate of 5% or more and less than 20%)
same,"R: persian speedwell, herbicidal effect rating",persian speedwell [21],4 (Herbicidal rate of 70% or more and less than 90%)
same,herbicidal effect on I: wild oat (criteria 0-5),wild oat [22]; 320 g/ha,0 (Herbicidal rate of 5% or less (almost no effect))
same,"H: barnyard grass, herbicidal effect rating",barnyard grass [23],5 (Herbicidal rate of 90% or more (almost completely withered))
same,"L: windgrass, herbicidal effect rating",windgrass [24],0 (Herbicidal rate of 5% or less (almost no effect))
same,herbicidal effect on P: chickweed (criteria 0-5),chickweed [25]; 320 g/ha,5 (Herbicidal rate of 90% or more (almost completely withered))
C#CCOc1c(C)nn(C)c(=O)c1-c1c(-c2ccc(OC(F)F)cc2)sc2ccc(F)cc12 [2-301],herbicidal effect on N: redroot pigweed,redroot pigweed [1],0 (Herbicidal rate of 5% or less (almost no effect))
same,"R: persian speedwell, herbicidal effect (criteria 0-5)",persian speedwell [2]; AAH 320 g/ha,5 (Herbicidal rate of 90% or more (almost completely withered))
same,"L: windgrass, herbicidal effect (criteria 0-5)",windgrass [3]; AAH 320 g/ha,0 (Herbicidal rate of 5% or less (almost no effect))
same,"M: velvetleaf, herbicidal effect (criteria 0-5)",velvetleaf [4]; AAH 320 g/ha,5 (Herbicidal rate of 90% or more (almost completely withered))
same,"F: southern crabgrass, herbicidal effect (criteria 0-5)",southern crabgrass [5]; AAH 320 g/ha,0 (Herbicidal rate of 5% or less (almost no effect))
same,herbicidal effect on E: rice flat sedge,rice flat sedge,2 (Herbicidal rate of 20% or more and less than 40%)
same,"K: Italian ryegrass, herbicidal effect (criteria 0-5)",Italian ryegrass [6]; AAH 320 g/ha,0 (Herbicidal rate of 5% or less (almost no effect))
same,herbicidal effect on F: southern crabgrass,southern crabgrass [7],0 (Herbicidal rate of 5% or less (almost no effect))
same,"O: lambsquarters, herbicidal effect (criteria 0-5)",lambsquarters [8]; AAH 320 g/ha,5 (Herbicidal rate of 90% or more (almost completely withered))
same,"H: barnyard grass, herbicidal effect (criteria 0-5)",barnyard grass [9]; AAH 320 g/ha,0 (Herbicidal rate of 5% or less (almost no effect))
same,herbicidal effect on G: green foxtail,green foxtail [10],0 (Herbicidal rate of 5% or less (almost no effect))
same,herbicidal effect on H: barnyard grass,barnyard grass [11],3 (Herbicidal rate of 40% or more and less than 70%)
same,herbicidal effect on M: velvetleaf,velvetleaf [12],0 (Herbicidal rate of 5% or less (almost no effect))
same,herbicidal effect on D: Chinese sprangletop,Chinese sprangletop,0 (Herbicidal rate of 5% or less (almost no effect))
same,herbicidal effect on J: blackgrass,blackgrass [13],0 (Herbicidal rate of 5% or less (almost no effect))
same,"G: green foxtail, herbicidal effect (criteria 0-5)",green foxtail [14]; AAH 320 g/ha,0 (Herbicidal rate of 5% or less (almost no effect))
same,"J: blackgrass, herbicidal effect (criteria 0-5)",blackgrass [15]; AAH 320 g/ha,0 (Herbicidal rate of 5% or less (almost no effect))
same,"N: redroot pigweed, herbicidal effect (criteria 0-5)",redroot pigweed [16]; AAH 320 g/ha,3 (Herbicidal rate of 40% or more and less than 70%)
same,herbicidal effect on O: lambsquarters,lambsquarters [17],0 (Herbicidal rate of 5% or less (almost no effect))
same,herbicidal effect on K: Italian ryegrass,Italian ryegrass [18],0 (Herbicidal rate of 5% or less (almost no effect))
same,herbicidal effect on I: wild oat,wild oat [19],0 (Herbicidal rate of 5% or less (almost no effect))
same,herbicidal effect on P: chickweed,chickweed [20],0 (Herbicidal rate of 5% or less (almost no effect))
same,herbicidal effect on R: persian speedwell,persian speedwell [21],3 (Herbicidal rate of 40% or more and less than 70%)
same,"I: wild oat, herbicidal effect (criteria 0-5)",wild oat [22]; AAH 320 g/ha,0 (Herbicidal rate of 5% or less (almost no effect))
same,herbicidal effect on H: barnyard grass,barnyard grass [23],0 (Herbicidal rate of 5% or less (almost no effect))
same,herbicidal effect on L: windgrass,windgrass [24],0 (Herbicidal rate of 5% or less (almost no effect))
same,"P: chickweed, herbicidal effect (criteria 0-5)",chickweed [25]; AAH 320 g/ha,5 (Herbicidal rate of 90% or more (almost completely withered))
